This assay deals with Receptor protein serine/threonine kinase (Danio rerio, UniProt B3DJG0). Put plainly: Kinase assay Dorsalization.
Receptor protein serine/threonine kinase, sequence (B3DJG0 whole entry): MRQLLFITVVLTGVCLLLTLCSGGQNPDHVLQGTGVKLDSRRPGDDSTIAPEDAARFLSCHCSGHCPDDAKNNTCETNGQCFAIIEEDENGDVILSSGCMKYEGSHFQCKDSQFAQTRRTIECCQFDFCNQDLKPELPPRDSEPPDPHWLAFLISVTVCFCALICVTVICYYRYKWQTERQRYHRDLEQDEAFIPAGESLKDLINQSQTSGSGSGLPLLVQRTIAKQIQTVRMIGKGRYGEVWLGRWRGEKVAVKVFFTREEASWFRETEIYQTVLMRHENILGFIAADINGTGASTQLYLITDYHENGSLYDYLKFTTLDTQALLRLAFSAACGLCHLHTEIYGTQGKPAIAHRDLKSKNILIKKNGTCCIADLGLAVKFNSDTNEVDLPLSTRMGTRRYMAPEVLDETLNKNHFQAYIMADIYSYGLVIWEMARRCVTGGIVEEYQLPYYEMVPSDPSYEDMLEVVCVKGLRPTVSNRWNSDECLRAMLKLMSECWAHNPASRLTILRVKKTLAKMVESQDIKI

Molecule `COc1ccc(-c2cnc3c(-c4ccccc4)cnn3c2)cc1` [dorsomorphin (6LP)] displayed an EC100 of over 50000 nM.

On to `CN(C)CCCOc1ccc(-c2cnc3c(-c4ccnc5ccccc45)cnn3c2)cc1` [DMH3], for which the EC100 was determined as 1000 nM.

For `c1ccc2c(-c3cnn4cc(-c5ccc(N6CCNCC6)cc5)cnc34)ccnc2c1` [LDN-193189], the EC100 turned out to be 3000 nM.

For the molecule `c1ccc2c(-c3cnn4cc(-c5ccc(OCCN6CCOCC6)cc5)cnc34)ccnc2c1` [4-(2-(4-(3-(quinolin-4-yl)pyrazolo[1,5-a]pyrimidin-6-yl)phenoxy)ethyl)morpholine], the EC100 was 100 nM.

Turning to `c1cc(-c2cnn3cc(-c4ccc(OCCN5CCOCC5)cc4)cnc23)ccn1`, the EC100 worked out at 1000 nM.

The molecule `CC(C)Oc1ccc(-c2cnc3c(-c4ccnc5ccccc45)cnn3c2)cc1` [4-(6-(4-isopropoxyphenyl)pyrazolo[1,5-a]pyrimidin-3-yl)quinoline] came in with an EC100 of 200 nM.

The values above are taken from BindingDB's records for doi:10.1021/cb9002865 (Vanderbilt University, 2010).
